In US20240081328A1, “Use of 4-Nitro-3-(Trifluoromethyl)Phenol in Killing or Controlling Pomacea Canaliculata, Method for Killing or Controlling Pomacea Canaliculata, and Molluscicide” (priority 2021, published 2024):
Read-outs that look alike come from different tables or passages of the source.

Tested on: Pomacea canaliculata
Assay: Immersion test of dilutions in beakers, mortality rate of Pomacea canaliculata
Type: in vivo
Conditions: for mortality at 0.0039 µg/mL / mortality at 0.0078 µg/mL / mortality at 0.0156 µg/mL / mortality at 0.0312 µg/mL / mortality at 0.0625 µg/mL / mortality at 0.125 µg/mL / mortality at 0.25 µg/mL / mortality at 0.5 µg/mL: Pomacea canaliculata, read-out: Mortality rate (%) of Pomacea canaliculata at different action time (h); for mortality at 0.0039 µg/mL: 0.0039 mg/L; for mortality at 0.0078 µg/mL: 0.0078 mg/L; for mortality at 0.0156 µg/mL: 0.0156 mg/L; for mortality at 0.0312 µg/mL: 0.0312 mg/L; for mortality at 0.0625 µg/mL: 0.0625 mg/L
Protocol: 0.5 mg of 4-nitro-3-(trifluoromethyl)phenol and 0.5 mg of niclosamide were completely dissolved in 1 mL of a dimethyl sulfoxide (DMSO) solution separately, and diluted to 1,000 mL with deaminized water to obtain a 4-nitro-3-(trifluoromethyl)phenol solution with a concentration of 0.5 mg/L and a niclosamide solution with a concentration of 0.5 mg/L.
The two solutions were separately diluted into 7 concentrations of dilutions using a doubling dilution method, including 0.25 mg/L, 0.125 mg/L, 0.0625 mg/L, 0.0312 mg/L, 0.0156 mg/L, and 0.0078 mg/L, and 0.0039 mg/L.
400 mL of the dilutions with different concentrations were separately poured into a 500 mL beaker, 10 Pomacea canaliculata samples were put into the dilution of each concentration, and each bottle mouth was sealed with wire mesh to completely immerse the Pomacea canaliculata in the dilution; clear water was used as a control group.
The experimental data were used to calculate the mortality rate of each treatment according to the following formula. Each calculation result was rounded to two decimal places. A formula for calculating the mortality rate was: […]
In the formula: P represented the mortality rate, in percentage (%); Σ^Ki represented • the number of dead Pomacea canaliculata, in snails; Σ^Ni represented the total number of treated Pomacea canaliculata, in snails.

Q: `O=C(Nc1ccc([N+](=O)[O-])cc1Cl)c1cc(Cl)ccc1O` [niclosamide] was tested. Which “killing of Pomacea canaliculata (in words)” value (from here on “killing”) (0.125 mg/L, within 24 h) did it give?
A: all Pomacea canaliculata died

Q: And the “killing” value (0.25 mg/L, action time 12 h)?
A: all Pomacea canaliculata died

Q: And the “killing” value (0.5 mg/L, action time 12 h)?
A: all Pomacea canaliculata died

Q: What about the mortality at 0.0039 µg/mL (action time 0 h) of the same compound?
A: 0%

Q: And the mortality at 0.0039 µg/mL (action time 12 h)?
A: 0%

Q: What about the mortality at 0.0039 µg/mL (action time 24 h) of the same compound?
A: 20%

Q: What about the mortality at 0.0039 µg/mL (action time 36 h) of the same compound?
A: 30%

Q: And the mortality at 0.0039 µg/mL (action time 48 h)?
A: 30%

Q: What about the mortality at 0.0039 µg/mL (action time 60 h) of the same compound?
A: 30%

Q: What about the mortality at 0.0039 µg/mL (action time 72 h) of the same compound?
A: 40%

Q: And the mortality at 0.0078 µg/mL (action time 0 h)?
A: 0%

Q: And the mortality at 0.0078 µg/mL (action time 12 h)?
A: 10%

Q: And the mortality at 0.0078 µg/mL (action time 24 h)?
A: 40%

Q: What about the mortality at 0.0078 µg/mL (action time 36 h) of the same compound?
A: 40%

Q: What about the mortality at 0.0078 µg/mL (action time 48 h) of the same compound?
A: 40%

Q: What about the mortality at 0.0078 µg/mL (action time 60 h) of the same compound?
A: 40%

Q: What about the mortality at 0.0078 µg/mL (action time 72 h) of the same compound?
A: 70%

Q: And the mortality at 0.0156 µg/mL (action time 0 h)?
A: 0%

Q: And the mortality at 0.0156 µg/mL (action time 12 h)?
A: 10%

Q: And the mortality at 0.0156 µg/mL (action time 24 h)?
A: 30%

Q: And the mortality at 0.0156 µg/mL (action time 36 h)?
A: 60%

Q: What about the mortality at 0.0156 µg/mL (action time 48 h) of the same compound?
A: 70%

Q: What about the mortality at 0.0156 µg/mL (action time 60 h) of the same compound?
A: 70%

Q: What about the mortality at 0.0156 µg/mL (action time 72 h) of the same compound?
A: 70%

Q: And the mortality at 0.0312 µg/mL (action time 0 h)?
A: 0%

Q: What about the mortality at 0.0312 µg/mL (action time 12 h) of the same compound?
A: 10%

Q: What about the mortality at 0.0312 µg/mL (action time 24 h) of the same compound?
A: 50%

Q: What about the mortality at 0.0312 µg/mL (action time 36 h) of the same compound?
A: 70%

Q: What about the mortality at 0.0312 µg/mL (action time 48 h) of the same compound?
A: 80%

Q: What about the mortality at 0.0312 µg/mL (action time 60 h) of the same compound?
A: 80%

Q: What about the mortality at 0.0312 µg/mL (action time 72 h) of the same compound?
A: 80%

Q: What about the mortality at 0.0625 µg/mL (action time 0 h) of the same compound?
A: 0%

Q: And the mortality at 0.0625 µg/mL (action time 12 h)?
A: 30%

Q: What about the mortality at 0.0625 µg/mL (action time 24 h) of the same compound?
A: 50%

Q: What about the mortality at 0.0625 µg/mL (action time 36 h) of the same compound?
A: 80%

Q: What about the mortality at 0.0625 µg/mL (action time 48 h) of the same compound?
A: 80%

Q: What about the mortality at 0.0625 µg/mL (action time 60 h) of the same compound?
A: 100%

Q: And the mortality at 0.0625 µg/mL (action time 72 h)?
A: 100%

Q: What about the mortality at 0.125 µg/mL (0.125 mg/L, action time 0 h) of the same compound?
A: 0%

Q: And the mortality at 0.125 µg/mL (0.125 mg/L, action time 12 h)?
A: 90%

Q: What about the mortality at 0.125 µg/mL (0.125 mg/L, action time 24 h) of the same compound?
A: 100%

Q: And the mortality at 0.125 µg/mL (0.125 mg/L, action time 36 h)?
A: 100%

Q: What about the mortality at 0.125 µg/mL (0.125 mg/L, action time 48 h) of the same compound?
A: 100%

Q: What about the mortality at 0.125 µg/mL (0.125 mg/L, action time 60 h) of the same compound?
A: 100%

Q: What about the mortality at 0.125 µg/mL (0.125 mg/L, action time 72 h) of the same compound?
A: 100%

Q: What about the mortality at 0.25 µg/mL (0.25 mg/L, action time 0 h) of the same compound?
A: 0%

Q: What about the mortality at 0.25 µg/mL (0.25 mg/L, action time 12 h) of the same compound?
A: 100%

Q: What about the mortality at 0.25 µg/mL (0.25 mg/L, action time 24 h) of the same compound?
A: 100%

Q: What about the mortality at 0.25 µg/mL (0.25 mg/L, action time 36 h) of the same compound?
A: 100%

Q: What about the mortality at 0.25 µg/mL (0.25 mg/L, action time 48 h) of the same compound?
A: 100%

Q: What about the mortality at 0.25 µg/mL (0.25 mg/L, action time 60 h) of the same compound?
A: 100%

Q: What about the mortality at 0.25 µg/mL (0.25 mg/L, action time 72 h) of the same compound?
A: 100%

Q: And the mortality at 0.5 µg/mL (0.5 mg/L, action time 0 h)?
A: 0%

Q: What about the mortality at 0.5 µg/mL (0.5 mg/L, action time 12 h) of the same compound?
A: 100%

Q: And the mortality at 0.5 µg/mL (0.5 mg/L, action time 24 h)?
A: 100%

Q: And the mortality at 0.5 µg/mL (0.5 mg/L, action time 36 h)?
A: 100%

Q: And the mortality at 0.5 µg/mL (0.5 mg/L, action time 48 h)?
A: 100%

Q: What about the mortality at 0.5 µg/mL (0.5 mg/L, action time 60 h) of the same compound?
A: 100%

Q: What about the mortality at 0.5 µg/mL (0.5 mg/L, action time 72 h) of the same compound?
A: 100%

Q: What about the “mortality rate of Pomacea canaliculata within 72 h” value (concentration of below 0.0312 mg/L, within 72 h) of the same compound?
A: < 100%
